Consider 8 compounds from patent US3959311A, “Oxotremorine antagonists” (priority 1967, dated 1976).

The test system of data set [1] is oxotremorine tremor response. In words: Oxotremorine antagonism: affinity constant from shift of median effective tremor dose of oxotremorine (Dixon up-and-down method). It is filed as in vivo, mice. The following applies: AL-301 set equal to 1.0. How it is done: It was tested in the following manner:
Four or more groups, each containing six female mice weighing 22 to 26 grams, were selected. To establish a control, each member of the first group was dosed in sequence with oxotremorine in the absence of any test compound.
In the Dixon method the first animal is treated at an arbitrarily selected level and the presence or absence of tremor response is noted. An increased or decreased dosage is then selected according to the schedule specified by the Dixon procedure for the second animal which would tend to produce a change in the tremor response.
For each test group, the increased median effective dose of oxotremorine was determined in the same manner.
To compare the potency of the test compound the affinity constant was obtained from the data. The affinity constant is that concentration of test compound which when administered blocks the oxotremorine response so that twice the concentration of oxotremorine is necessary to evoke the same response as was produced in the absence of the test compound.

In data set [2] the test system is tremoromimetic effects of oxotremorine. The class given is in vivo, mice. An excerpt:
(§1) This "tremorolytic" dose is designated as T. As a standard for the peripheral effect the dose of the compound in mg/kg, which doubles the diameter of the pupil, is given. This "mydriatic" dose is designated as M. The ratio between M and T will constitute a standard for specific central effect of the substance. A higher value for M/T corresponds to a higher specificity.

The test system of another data set is diameter of the pupil. The data set is described as follows: animal or person. It is filed as in vivo, mice. The settings on record: Mus musculus.
Source text: as §1

Data set [3] concerns oxotremorine-induced tremor. The following applies: cited from earlier work.
Setting [4] is: mydriatic dose / tremorolytic dose, higher value = higher specificity.
Setting [5] is: dose which doubles the diameter of the pupil, mice, read-out: Mydriatic Dose.

Read-outs that look alike come from different tables or passages of the source.

In the case of `CC(C#CCN1CCCC1)N1CCCC1=O` (stereo not shown) [N-(1-methyl-4-pyrrolidino-2-butynyl)-pyrrolidin-2-one], the “Ratio of affinity constant dosages (relative potency)” value (“Ratio … (relative potency)” for short) in data set [1] stood at 17.0; in data set [1] (listed as n = 4), 17. Also, the “Tremorolytic Dose (T)” value in data set [2] (dose which inhibits the effect of 150 μg/kg of oxotremorine i.v., mice) was 0.19 mg/kg. Further, in data set [2] (setting [4]), the “M/T ratio (specific central effect)” value is given as 3.26. The ED (doubling of pupil diameter) in the data set on diameter of the pupil (read-out: Mydriatic Dose (M)) came out at 0.62 mg/kg.
On to `CC(C#CCN1CCCCCC1)N1CCCC1=O` (stereo not shown) [N-(1-methyl-4-perhydroazepino-2-butynyl)-pyrrolidin-2-one], for which the “Ratio … (relative potency)” value in data set [1] is reported as 9.0. The “Tremorolytic Dose (T)” value in data set [2] (mouse, in vivo, iv) was 0.32 mg/kg. For the same compound, the “M/T ratio (specific central effect)” value in data set [2] (setting [4]) worked out at 6.25. In addition, in the data set on diameter of the pupil (setting [5]), the ED (doubling of pupil diameter) came to 2 mg/kg.
Regarding `CC(C#CCN1CCCCC1)N1CCCC1=O` (stereo not shown) [N-(1-methyl-4-piperidino-2-butynyl)-pyrrolidin-2-one], the “Ratio … (relative potency)” value in data set [1] came out at 8.5.
As to `CN1[C@@H]2CC[C@H]1C[C@@H](OC(=O)C(CO)c1ccccc1)C2` (stereo partly shown) [atropine], in data set [3] (in words), the “antagonism of oxotremorine-induced tremor” value was “antagonize the oxotremorine-induced tremor” and the “side effect: antagonism of peripheral cholinergic effects of oxotremorine” value was “antagonizing the peripheral cholinergic effects of oxotremorine”.
`O=C1CCCN1CC#CCN1CCCC1` [oxotremorine, N-(4-pyrrolidino-2-butynyl)-pyrrolidin-2-one]: the effects of oxotremorine entry in data set [3] (immediately after injection by intravenous routes, several species of laboratory animals) is “induces violent generalized tremors, spasticity, hypokinesia and parasympathomimetic effects”.
As for `CCN(CC)CCOC(=O)C1(c2ccccc2)CCCC1` [caramiphen, 1-phenylcyclopentanecarboxylic acid 2-diethylaminoethyl ester], the “side effect: antagonism of peripheral cholinergic effects of oxotremorine” value in data set [3] (in vivo) is on record as “antagonizing the peripheral cholinergic effects of oxotremorine”. For the same compound, the “antagonism of oxotremorine-induced tremor” value in data set [3] (in words) is reported as “antagonize the oxotremorine-induced tremor”.
`OC(CCN1CCCCC1)(c1ccccc1)C1CCCCC1` (stereo not drawn) [Artane, α-cyclohexyl-α-phenyl-1-piperidine-propanol, reference compound]: in data set [1], the “Ratio … (relative potency)” value stood at 1.8.
Take `OC(CCN1CCCCC1)(c1ccccc1)C1CCCCC1` (stereo not shown) [benzhexol, reference compound]: in data set [2] (mouse, in vivo), the “M/T ratio (specific central effect)” value came out at 0.21. Also, the “Tremorolytic Dose (T)” value in data set [2] (mouse, in vivo, iv) was determined as 5.5. Besides, in the data set on diameter of the pupil (setting [5]), the ED (doubling of pupil diameter) was 1.15 mg/kg.
